According to publication PMC11266932, “Enhanced absorption of prenylated cinnamic acid derivatives from Brazilian green propolis by turmeric in humans and rats” (Food Science & Nutrition, 2024):

Target: T1, breast cancer resistance protein (BCRP) (Homo sapiens, UniProt Q9UNQ0)
T1 construct: host or cells: MDCK II (Madin-Darby canine kidney) cells overexpressing BCRP
T1 sequence (Q9UNQ0 1-655): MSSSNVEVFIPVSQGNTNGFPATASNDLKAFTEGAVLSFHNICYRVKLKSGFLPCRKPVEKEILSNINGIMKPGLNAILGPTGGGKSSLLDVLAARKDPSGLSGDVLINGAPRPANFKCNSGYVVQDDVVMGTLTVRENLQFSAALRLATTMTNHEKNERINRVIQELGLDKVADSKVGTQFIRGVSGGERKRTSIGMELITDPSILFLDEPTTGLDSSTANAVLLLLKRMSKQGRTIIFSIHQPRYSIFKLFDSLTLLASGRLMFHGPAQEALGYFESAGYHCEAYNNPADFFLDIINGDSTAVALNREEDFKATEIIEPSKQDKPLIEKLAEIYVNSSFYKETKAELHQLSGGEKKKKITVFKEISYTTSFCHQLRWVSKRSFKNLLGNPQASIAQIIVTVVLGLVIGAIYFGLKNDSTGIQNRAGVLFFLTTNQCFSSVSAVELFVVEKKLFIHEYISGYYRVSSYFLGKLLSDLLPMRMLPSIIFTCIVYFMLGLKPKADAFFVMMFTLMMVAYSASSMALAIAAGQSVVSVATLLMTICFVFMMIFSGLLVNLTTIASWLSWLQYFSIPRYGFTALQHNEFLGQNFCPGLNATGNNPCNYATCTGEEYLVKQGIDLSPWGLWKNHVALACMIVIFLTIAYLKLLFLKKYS
Experiment: Bidirectional transport assay across MDCK II-BCRP cell monolayer
Assay type: in vitro ADME
Conditions: for Net flux ratio: ER of MDCK II‐BCRP divided by ER of parent MDCK II, >2 = transporter-mediated efflux; for substrate of BCRP (in words): bidirectional transport assay, net flux ratio criterion
Experimental: The Madin‐Darby canine kidney (MDCK II) cell line and MDCK II cells overexpressing multidrug resistance 1 (MDR1) or breast cancer resistance protein (BCRP) were purchased from the Netherlands Cancer Institute (Amsterdam, Netherlands) and SOLVO Biotechnology (Szeged, Hungary), respectively. The cell lines were routinely cultured in Dulbecco's modified Eagle's medium (DMEM) containing 10% fetal bovine serum and 1% penicillin/streptomycin at 37°C in 5% CO2. All cells were seeded in a feeder tray at a density of 3–6 × 10^4 cells/well and grown for 3–4 days. On the day of the transport study, cell monolayers were washed with Hanks' balanced salt solution (HBSS) buffer containing 0.1% BSA (pH 7.4) and incubated at 37°C for 20 min. Artepillin C and drupanin dissolved in DMSO (10 mM) were added to the transport buffer (HBSS containing 10 mM HEPES, 0.2% glucose, 0.1% BSA, pH 7.4) to a final concentration of 10 μM and then loaded into the apical or basolateral chamber. After 120 min of incubation, 150 μL of the aliquots were collected from the donor and receiver chambers and mixed with an equal volume of 50% methanol. After centrifugation at 3000 rpm for 10 min at 4°C, the supernatants were filtered and subjected to LC–MS/MS analysis.
The in vitro samples were analyzed using HPLC (LC‐20A, Shimadzu, Kyoto, Japan) with a reversed‐phase column (Inertsil ODS‐3, 2.1 × 33 mm, ID. 3 μm, GL Sciences, Tokyo, Japan) held at 40°C. The mobile solvents used were water with 10 mM ammonium acetate (pH 4.0, A) and methanol (B) pumped at a flow rate of 0.4 mL/min. The following gradient was employed: 10%–90% B (0–0.5 min), 90% B (0.5–2.5 min), and 10% B (2.5–4 min). The eluent was monitored using a triple quadrupole mass spectrometer (API 4000, AB Sciex, Framingham, MA, USA) incorporating an electrospray ion source (ESI) operating in the multiple reaction monitoring mode. The ESI source was operated in negative ionization mode at 600°C with a spray voltage of −4.5 kV. The curtain gas (nitrogen), collision gas (nitrogen), nebulizer gas (whole air), and drying gas (whole air) were set at 40, 5, 50, and 70 psi, respectively. […] Artepillin C and drupanin were diluted in 50% methanol to concentrations of 1.6, 3.2, 8, 40, 200, 1000, and 2000 nM and were used as external standards. Sulfaphenazole (0.2 μM) was used as an internal standard.
The apparent permeability coefficients (Papp) for both directions, from the apical side to the basolateral side (A to B) and from the basolateral side to the apical side (B to A) in the cell monolayer, were calculated using the following equation: (1) Papp=dQ/dt/A×C0 where dQ/dt is the permeation rate (nmol/s), A is the membrane area (cm^2), and C0 is the initial concentration of the compound in the donor compartment (nM). The efflux ratios (ER) in the B‐to‐A and A‐to‐B directions were determined using the following equation: (2) ER=PappBtoA/PappAtoB
Net flux ratios were calculated by dividing the ER obtained from MDCK II‐MDR1 (or BCRP) cells by that obtained from the parent MDCK II cells.

[1] = 10 μM, 120 min, mean ± SE, n = 2

Row | SMILES | Papp MDCK II‐BCRP A to B [1] | Papp MDCK II‐BCRP B to A [1] | Flux ratio (MDCK II‐BCRP) (efflux ratio, ER) (10 μM, Papp B to A / Papp A to B) | Net flux ratio | substrate of BCRP (in words)
1 | CC(C)=CCc1cc(/C=C/C(=O)O)cc(CC=C(C)C)c1O [artepillin C] | 9.7 ± 0.2 10^−6 cm/s | 16.0 ± 0.01 10^−6 cm/s | 1.6 | 2.0 | substrates
2 | CC(C)=CCc1cc(/C=C/C(=O)O)ccc1O [drupanin] |  |  |  | 20.4 | substrates
